Experimental findings from ChEMBL document CHEMBL1201862, “PubChem BioAssay data set” (2004) are described below.

Each structure is given as a SMILES string. Active and inactive are the calls of the source.

For one assay, the target named is Major prion protein (Homo sapiens, UniProt P04156). The format is functional, cell-based.
Assay [1] is described as follows: fluconazole-exposed Candida albicans growth modulators – fluorescence, retest, confirmation (AID 2467). The format is functional, cell-based.
Assay [2] is described as follows: NIH-3T3 fibroblast cytotoxicity, dose response, cytotoxicity control, cell-based, fluorescence, Alamar Blue, secondary assay (AID 2327).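 Further: NIH-3T3 mouse fibroblasts cultured with fluconazole at 8 µg/mL.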 In kind it is functional.
Assay [3] has as its target T1, High affinity choline transporter 1 (Homo sapiens, UniProt Q9GZV3).
T1 sequence (Q9GZV3 whole entry): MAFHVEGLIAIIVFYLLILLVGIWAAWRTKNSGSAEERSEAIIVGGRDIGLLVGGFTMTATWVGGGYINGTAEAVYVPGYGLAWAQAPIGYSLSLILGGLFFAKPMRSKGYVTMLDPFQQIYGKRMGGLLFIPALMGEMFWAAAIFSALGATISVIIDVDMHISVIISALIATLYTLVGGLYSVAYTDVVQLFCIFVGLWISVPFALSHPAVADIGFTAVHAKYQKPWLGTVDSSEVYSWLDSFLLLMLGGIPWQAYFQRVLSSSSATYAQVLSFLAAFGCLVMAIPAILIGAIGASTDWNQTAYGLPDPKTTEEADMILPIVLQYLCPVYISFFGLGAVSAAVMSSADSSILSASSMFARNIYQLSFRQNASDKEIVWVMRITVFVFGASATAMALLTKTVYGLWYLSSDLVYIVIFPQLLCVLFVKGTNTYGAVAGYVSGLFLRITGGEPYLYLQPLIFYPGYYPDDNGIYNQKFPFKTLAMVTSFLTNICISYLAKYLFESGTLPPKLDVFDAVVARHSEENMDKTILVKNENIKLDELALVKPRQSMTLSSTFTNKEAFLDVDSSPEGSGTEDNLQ
Put plainly: human choline transporter blockers, potency – cell-based, 5-point CRC, membrane potential dye, dose response (AID 504840). The format is functional.

Assay [4] has as its target T2, Short transient receptor potential channel 4 (Mus musculus, UniProt Q9QUQ5).
T2 sequence (Q9QUQ5 whole entry): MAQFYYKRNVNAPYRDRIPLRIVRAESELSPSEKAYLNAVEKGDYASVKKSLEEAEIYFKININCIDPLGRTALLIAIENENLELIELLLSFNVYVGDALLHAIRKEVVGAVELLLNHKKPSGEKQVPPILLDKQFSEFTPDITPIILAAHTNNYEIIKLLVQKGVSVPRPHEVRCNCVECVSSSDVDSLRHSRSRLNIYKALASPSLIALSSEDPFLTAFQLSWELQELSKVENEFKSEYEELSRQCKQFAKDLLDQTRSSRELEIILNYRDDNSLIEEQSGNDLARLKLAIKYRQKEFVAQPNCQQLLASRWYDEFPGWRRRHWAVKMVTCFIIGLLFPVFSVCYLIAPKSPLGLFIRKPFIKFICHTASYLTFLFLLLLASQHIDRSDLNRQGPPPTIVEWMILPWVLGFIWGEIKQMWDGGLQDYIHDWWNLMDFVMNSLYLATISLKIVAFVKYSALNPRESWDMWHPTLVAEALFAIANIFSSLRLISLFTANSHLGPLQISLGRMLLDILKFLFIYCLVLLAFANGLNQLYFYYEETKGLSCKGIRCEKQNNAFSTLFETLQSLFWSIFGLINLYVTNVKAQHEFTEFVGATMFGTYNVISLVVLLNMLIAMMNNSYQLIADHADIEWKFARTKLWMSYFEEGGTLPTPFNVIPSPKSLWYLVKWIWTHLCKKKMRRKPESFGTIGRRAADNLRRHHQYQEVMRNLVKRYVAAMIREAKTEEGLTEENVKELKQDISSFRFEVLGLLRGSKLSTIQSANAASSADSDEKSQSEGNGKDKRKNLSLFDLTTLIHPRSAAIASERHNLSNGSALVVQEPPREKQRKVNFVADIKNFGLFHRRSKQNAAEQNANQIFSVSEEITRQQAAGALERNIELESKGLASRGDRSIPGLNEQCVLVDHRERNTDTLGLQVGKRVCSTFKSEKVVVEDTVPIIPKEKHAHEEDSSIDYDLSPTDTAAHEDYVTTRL
Briefly: calcium entry via TRPC4 opening agents – cell-based, HEK293 TRPC4/mu-opioid, Fluo-4 calcium, dose response (AID 434937). The format is functional.

Assay [5] can be described thus: HGIII-sPLA2 enzyme inhibition potency – biochemical, QFRET, IC50, dose response (AID 743457).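 Further: green fluorescence rise as the enzyme cleaves BODIPY PC-A2 in liposomes.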
A short description of assay [6]: viability loss in HEK293 kidney cells – cell-based, cherry-picks, set 5, cytotoxicity control, dose response (AID 1053117). The format is functional.
The next assay has as its system INS1. Briefly: INS-1E survival protection against cytokine death – cell-based, luminescence, retest, dose response (AID 449756).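 Further: cell death triggered by IL-1 beta plus TNF-alpha plus IFN-gamma mixture; protective hits raise ATP signal compared with cytokine alone wells.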 Conditions: Rattus norvegicus. In kind it is functional.
Assay [7] in a line: THP-1 cell cytotoxicity, dose response, cytotoxicity control for non-replicating M. tuberculosis project (AID 489025). In kind it is functional.
The nature of assay [8]: HepG2 cell cytotoxicity, dose response, cytotoxicity control for non-replicating M. tuberculosis project (AID 489018). The format is functional. As to conditions: Mycobacterium tuberculosis.
Assay [9] in a line: general mammalian cell viability loss – inhibitor set, cherry-pick, set 2, cytotoxicity control for miR-122 modulator project, dose response (AID 720697). The format is functional, cell-based.
Assay [10] can be described thus: general mammalian cell viability loss – activator set, cherry-pick, cytotoxicity control for miR-122 modulator project, dose response (AID 720690).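 Further: HEK293T human cells scored for general mammalian cytotoxicity.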 In kind it is functional, cell-based.
The nature of assay [11]: Vero E6 cell cytotoxicity, dose response, cytotoxicity control for non-replicating M. tuberculosis project, secondary assay (AID 492998). In kind it is functional, VeroE6. Conditions: Vero C1008.
Assay [12] can be described thus: YAP1 overexpression rescue of CTGF inhibition – DLD1 cells, RT-qPCR, cherry-pick, mechanism study for YAP1 pathway inhibitor project, dose response (AID 1053127). In kind it is functional, cell-based. As to conditions: DLD-1. (In general: Real-time PCR tracks product formation cycle by cycle.)
A short description of assay [13]: CTGF mRNA reduction in DLD1 cells – cell-based, DLD1 colon cancer, RT-qPCR, cherry-pick, dose response (AID 1053122). In kind it is functional. As to conditions: Cancer cell lines.
Assay [14] can be described thus: HeLa cell viability loss – plate reader, dry powder, cytotoxicity control, dose response (AID 651946). In kind it is functional, cell-based.
Assay [15] can be described thus: Late stage assay provider results from the probe development effort to identify inhibitors of the Plasmodium falciparum M17 Leucine Aminopeptidase (M17LAP): radiolabel-based cell-based dose response assay to identify compounds that inhibit P. falciparum growth in RBCs Set 2. The format is functional.
A short description of assay [16]: OVCAR8 cell viability loss – plate reader, dry powder samples, PAX8 project, dose response (AID 743197). Conditions: OVCAR-8. The format is functional, cell-based.
A further assay addresses Paired box protein Pax-8 (Homo sapiens, UniProt Q06710). Briefly: PAX8 transcriptional activity inhibition in RMG-I – RMG-I cells, luciferase, cherry-pick, dose response (AID 687027).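 Further: luciferase reporter driven by Pax8 target thyroperoxidase promoter measured by SteadyGlo luminescence.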 The format is functional, cell-based.
Assay [17] can be described thus: OVCAR-3 cell viability loss – plate reader, dry powder samples, PAX8 inhibitor project, dose response (AID 743044). The format is functional, cell-based.
Assay [18] is described as follows: IGROV1 cell killing – plate reader, dry powder samples, PAX8 inhibitor project, dose response (AID 743043). In kind it is functional, cell-based. As to conditions: IGROV-1.
Assay [19] is described as follows: toxicity toward immortalized ovarian surface epithelium – cell-based, plate reader, dry powder samples, cytotoxicity control for PAX8 inhibitor project, dose response (AID 743045). The format is functional.

In the case of `COc1cccc(NC(=O)CCSc2ccc3ccccc3n2)c1`, the half-inhibitory concentration (IC50) (commonly the concentration that inhibits the measured activity by half) at Major prion protein is 3.97 µM (active); in the assay “cells”, > 138 µM (inactive).

For `O=C(NNC(=S)NC(=O)C12CC3CC(CC(C3)C1)C2)c1ccncc1`, the EC50 – broadly, the concentration at which the effect is half-maximal – in [1] is 3.2 µM (active); in assay [2], 26.4 µM (active); in assay [4], 4.22 µM (active). Moreover, the values for the IC50 in assay [3] and in assay [5] were 28.8 µM (active) and > 122 µM (inactive), respectively.

For the compound `C[C@@H]1CN([C@H](C)CO)C(=O)c2cc(NC(=O)C3CCCCC3)ccc2O[C@H]1CN(C)Cc1ccc(-c2ccccc2)cc1`, in assay [6], the AC50 (commonly the concentration giving half of the maximal activity seen) was > 52 µM (inactive).

For `N#CC1=C(N)Oc2c(ccc3cccnc23)C1c1ccccc1` (stereo not drawn), the AC50 is 4.54 µM (active) in the assay with INS1, 2.47 µM (active) in assay [9] and 42.5 µM (active) in assay [10]. The values for the cytotoxic concentration (CC50) in assay [7], in [8] and in assay [11] were 4.84 µM (active), > 20 µM (active) and 5.56 µM (active), respectively.

For `CO[C@@H](CN(C)S(=O)(=O)c1ccc(C)cc1)[C@H](C)CN([C@@H](C)CO)S(=O)(=O)c1cccc(Cl)c1`, the concentration at half-maximal activity (AC50) is 17.7 µM (active) in assay [12] and 16.4 µM (active) in assay [13].

For `COc1ccccc1CSc1nnc(-c2ccccc2)o1`, the AC50 in assay [14] is > 52 µM (inactive).

As to `CCCCOc1ccc(CN(O)C(=O)c2ccccc2)cc1`, the IC50 in assay [15] is 13.6 µM (inactive).

Regarding `C[C@H](CO)N1C[C@H](C)[C@H](CN(C)Cc2ccc(C(=O)Nc3ccccc3N)cc2)Oc2ccc(N(C)C)cc2C1=O`, the concentration at half-maximal activity (AC50) is 33.7 µM (active) in assay [16]; 10.5 µM (active) on Paired box protein Pax-8; 43.9 µM (active) in assay [17]; 23.4 µM (active) in assay [18]; 56.3 µM (active) in assay [19].
